According to patent US9815846B2 (Merck Sharp & Dohme Corp., priority 2014, dated 2017):

Target: human TrkA receptor (Homo sapiens (Human), UniProt P04629)
Test: DiscoverX PathHunter TrkA functional assay (NGF-stimulated U2OS cells)
Type: cell-based
Conditions: U2OS cells expressing human TrkA-PK, Shc1-EA and p75NTR; compound 1 h, then NGF at ~80% of maximal response for 3 h; luminescence

Chain of human TrkA receptor (P04629 33-796): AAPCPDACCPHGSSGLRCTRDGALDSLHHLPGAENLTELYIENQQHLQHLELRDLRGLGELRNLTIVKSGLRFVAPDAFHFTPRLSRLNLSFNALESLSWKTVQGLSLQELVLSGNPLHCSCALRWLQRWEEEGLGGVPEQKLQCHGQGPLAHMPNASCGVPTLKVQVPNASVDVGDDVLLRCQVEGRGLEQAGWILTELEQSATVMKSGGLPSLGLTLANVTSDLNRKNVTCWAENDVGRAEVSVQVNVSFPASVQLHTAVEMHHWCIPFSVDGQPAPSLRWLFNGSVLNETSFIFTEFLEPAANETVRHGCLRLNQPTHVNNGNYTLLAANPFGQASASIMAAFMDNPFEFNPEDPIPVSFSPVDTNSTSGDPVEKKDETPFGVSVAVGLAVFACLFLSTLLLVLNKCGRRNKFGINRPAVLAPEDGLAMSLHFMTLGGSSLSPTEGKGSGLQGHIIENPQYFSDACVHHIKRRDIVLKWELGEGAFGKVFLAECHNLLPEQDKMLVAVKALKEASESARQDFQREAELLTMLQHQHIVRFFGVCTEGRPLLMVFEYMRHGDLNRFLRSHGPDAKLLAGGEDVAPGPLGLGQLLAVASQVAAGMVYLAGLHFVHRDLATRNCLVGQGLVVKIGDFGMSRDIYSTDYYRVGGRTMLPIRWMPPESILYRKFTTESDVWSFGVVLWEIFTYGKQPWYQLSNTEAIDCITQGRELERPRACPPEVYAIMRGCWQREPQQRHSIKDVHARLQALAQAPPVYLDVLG

| Structure (SMILES) | IC50 |
| --- | --- |
| Cn1ccc(-c2cc(C(=O)Nc3ccc(CNC(=O)C(O)CO)nc3-c3ccccc3)c(F)cc2C(F)(F)F)n1 (single isomer, unassigned) [Example 61, (S or R)-N-(6-((2,3-dihydroxypropanamido)methyl)-2-phenylpyridin-3-yl)-2-fluoro-5-(1-methyl-1H-pyrazol-3-yl)-4-(trifluoromethyl)benzamide] | 0.64 nM |
| Cn1ccc(-c2cc(C(=O)Nc3cc(C4CCC(=O)N4)cnc3-c3ccccc3)c(F)cc2C(F)(F)F)n1 (single isomer, unassigned) [Example 181, (R or S)-2-Fluoro-5-(1-methyl-1H-pyrazol-3-yl)-N-(5-(5-oxopyrrolidin-2-yl)-2-phenylpyridin-3-yl)-4-(trifluoromethyl)benzamide] | 3.5 nM |
| Cc1nc(CO)c(NC(=O)c2ccc(C(F)(F)F)c(-c3ccn(C)n3)c2)c(-c2ccccc2)n1 [Example 46, N-(4-(Hydroxymethyl)-2-methyl-6-phenylpyrimidin-5-yl)-3-(1-methyl-1H-pyrazol-3-yl)-4-(trifluoromethyl)benzamide] | 24 nM |
| Cn1ccc(-c2cc(C(=O)Nc3ccc(CNC(=O)C(O)CO)nc3-c3ccccc3)c(F)cc2C(F)(F)F)n1 (single isomer, unassigned) [Example 62, (S or R)-N-(6-((2,3-dihydroxypropanamido)methyl)-2-phenylpyridin-3-yl)-2-fluoro-5-(1-methyl-1H-pyrazol-3-yl)-4-(trifluoromethyl)benzamide] | 0.79 nM |
| NC(=O)N1CCc2nc(-c3ccccc3)c(NC(=O)c3cc(-c4ncccn4)c(C(F)(F)F)cc3F)cc2C1 [Example 155, 3-(2-fluoro-5-(pyrimidin-2-yl)-4-(trifluoromethyl)benzamido)-2-phenyl-7,8-dihydro-1,6-naphthyridine-6(5H)-carboxamide] | 2.3 nM |
| O=C(Nc1cc(-c2csc(C3CC3)n2)cnc1N1CCC[C@@H]1CO)c1cc(-c2ncccn2)c(C(F)(F)F)cc1F [Example 137, (R)—N-(5-(2-Cyclopropylthiazol-4-yl)-2-(2-(hydroxymethyl)pyrrolidin-1-yl)pyridin-3-yl)-2-fluoro-5-(pyrimidin-2-yl)-4-(trifluoromethyl)benzamide] | 2.9 nM |
| Cn1ccc(-c2cc(C(=O)Nc3cnc(CN4CCCC4=O)nc3-c3ccccc3)c(F)cc2C(F)(F)F)n1 [Example 219, 2-fluoro-5-(1-methyl-1H-pyrazol-3-yl)-N-(2-((2-oxopyrrolidin-1-yl)methyl)-4-phenylpyrimidin-5-yl)-4-(trifluoromethyl)benzamide] | 0.32 nM |
| CC(=O)NCc1cnc(-c2cnc(-c3ccccc3)c(NC(=O)c3cc(-c4ncccn4)c(C(F)(F)F)cc3F)c2)nc1 [Example 170, N-(5-(5-(acetamidomethyl)pyrimidin-2-yl)-2-phenylpyridin-3-yl)-2-fluoro-5-(pyrimidin-2-yl)-4-(trifluoromethyl)benzamide] | 16 nM |
| Cn1ccc(-c2cc(C(=O)Nc3cnc(C(C)(C)C(=O)O)nc3-c3ccccc3)c(F)cc2C(F)(F)F)n1 [Example 121, 2-(5-(2-fluoro-5-(1-methyl-1H-pyrazol-3-yl)-4-(trifluoromethyl)benzamido)-4-phenylpyrimidin-2-yl)-2-methylpropanoic acid] | 8 nM |
| Cn1ccc(-c2cc(C(=O)Nc3cnc4c(c3-c3ccccc3)CCN(C(=O)CO)C4)ccc2C(F)(F)F)n1 [Example 143, N-(7-(2-Hydroxyacetyl)-4-phenyl-5,6,7,8-tetrahydro-1,7-naphthyridin-3-yl)-3-(1-methyl-1H-pyrazol-3-yl)-4-(trifluoromethyl)benzamide] | 19 nM |
| CNC(=O)N1CCc2nc(-c3ccccc3)c(NC(=O)c3cc(-c4ncccn4)c(C(F)(F)F)cc3F)cc2C1 [Example 150, 3-(2-fluoro-5-(pyrimidin-2-yl)-4-(trifluoromethyl)benzamido)-N-methyl-2-phenyl-7,8-dihydro-1,6-naphthyridine-6(5H)-carboxamide] | 14 nM |
| O=C(Nc1cnc(CO)nc1-c1ccccc1)c1ccc(C(F)(F)F)c(-c2cc[nH]n2)c1 [Example 40, N-(2-(hydroxymethyl)-4-phenylpyrimidin-5-yl)-3-(1H-pyrazol-3-yl)-4-(trifluoromethyl)benzamide] | 12 nM |
| Cn1ccc(-c2cc(C(=O)Nc3cnc4c(c3-c3ccccc3)CN(C(=O)CO)CC4)ccc2C(F)(F)F)n1 [Example 160, N-(6-(2-hydroxyacetyl)-4-phenyl-5,6,7,8-tetrahydro-1,6-naphthyridin-3-yl)-3-(1-methyl-1H-pyrazol-3-yl)-4-(trifluoromethyl)benzamide] | 4.7 nM |
| Cn1ccc(-c2cc(C(=O)Nc3cnc(Cc4nnc[nH]4)nc3-c3ccccc3)c(F)cc2C(F)(F)F)n1 [Example 129, N-(2-((4H-1,2,4-Triazol-3-yl)methyl)-4-phenylpyrimidin-5-yl)-2-fluoro-5-(1-methyl-1H-pyrazol-3-yl)-4-(trifluoromethyl)benzamide] | 0.25 nM |
| O=C(Nc1cc(Oc2ccccn2)cnc1-c1ccccc1)c1cc(-c2ncccn2)c(C(F)(F)F)cc1F [Example 167, 2-fluoro-N-(2-phenyl-5-(pyridin-2-yloxy)pyridin-3-yl)-5-(pyrimidin-2-yl)-4-(trifluoromethyl)benzamide] | 24 nM |

Continued by falling IC50, values first:

| IC50 | Structure (SMILES) |
| --- | --- |
| 4900 nM | O=C(Nc1ccccc1-c1ccc(F)cc1)c1ccc(C(F)(F)F)cc1F [Example 6, 2-fluoro-N-(4′-fluorobiphenyl-2-yl)-4-(trifluoromethyl)benzamide] |
| 4000 nM | Cc1cc(-c2ccccc2NC(=O)c2cccc(-c3nccs3)c2)n[nH]1 [Example 7, N-[2-(5-methyl-1H-pyrazol-3-yl)phenyl]-3-(1,3-thiazol-2-yl)benzamide] |
| 160 nM | Cc1nc(Cl)c(NC(=O)c2ccc(C(F)(F)F)c(-c3ccn(C)n3)c2)c(-c2ccccc2)n1 [Example 4, N-(4-Chloro-2-methyl-6-phenylpyrimidin-5-yl)-3-(1-methyl-1H-pyrazol-3-yl)-4-(trifluoromethyl)benzamide] |
| 100 nM | Cc1ncc(NC(=O)c2cc(-c3ncccn3)c(Cl)cc2F)c(-c2ccccc2)n1 [Example 2, 4-Chloro-2-fluoro-N-(2-methyl-4-phenylpyrimidin-5-yl)-5-(pyrimidin-2-yl)benzamide] |
| 15 nM | Cc1ncc(NC(=O)c2ccc(C(F)(F)F)c(-c3ncco3)c2)c(-c2ccccc2)n1 [Example 20, N-(2-methyl-4-phenylpyrimidin-5-yl)-3-(1,3-oxazol-2-yl)-4-(trifluoromethyl)benzamide] |
| 9.8 nM | Cn1ccc(-c2cc(C(=O)Nc3cnc(CC(N)=O)nc3-c3ccccc3)ccc2C(F)(F)F)n1 [Example 116, N-(2-(2-amino-2-oxoethyl)-4-phenylpyrimidin-5-yl)-3-(1-methyl-1H-pyrazol-3-yl)-4-(trifluoromethyl)benzamide] |
| 4.7 nM | Cn1ccc(-c2cc(C(=O)Nc3cc4c(nc3-c3ccccc3)CNC(=O)C4)ccc2C(F)(F)F)n1 [Example 142, 3-(1-Methyl-1H-pyrazol-3-yl)-N-(6-oxo-2-phenyl-5,6,7,8-tetrahydro-1,7-naphthyridin-3-yl)-4-(trifluoromethyl)benzamide] |
| 4 nM | Cc1coc(-c2cc(C(=O)Nc3cnc(C)nc3-c3ccccc3)ccc2C(F)(F)F)n1 [Example 29, 3-(4-methyl-1,3-oxazol-2-yl)-N-(2-methyl-4-phenylpyrimidin-5-yl)-4-(trifluoromethyl)benzamide] |
| 4 nM | Cn1ccc(-c2cc(C(=O)Nc3cnc(CS(C)(=O)=O)nc3-c3ccccc3)c(F)cc2C(F)(F)F)n1 [Example 199, 2-Fluoro-5-(1-methyl-1H-pyrazol-3-yl)-N-(2-((methylsulfonyl)methyl)-4-phenylpyrimidin-5-yl)-4-(trifluoromethyl)benzamide] |
| 3.6 nM | CC(=O)NCc1ncc(NC(=O)c2ccc(C(F)(F)F)c(-c3ccn(C)n3)c2)c(-c2ccccc2)n1 [Example 49, N-(2-(acetamidomethyl)-4-phenylpyrimidin-5-yl)-3-(1-methyl-1H-pyrazol-3-yl)-4-(trifluoromethyl)benzamide] |
| 3.3 nM | Cn1ccc(-c2cc(C(=O)Nc3ncc(CNC(=O)CO)nc3-c3ccccc3)c(F)cc2C(F)(F)F)n1 [Example 65, 2-fluoro-N-(5-((2-hydroxyacetamido)methyl)-3-phenylpyrazin-2-yl)-5-(1-methyl-1H-pyrazol-3-yl)-4-(trifluoromethyl)benzamide] |
| 2.3 nM | NC(=O)c1ccc(-c2cnc(-c3ccccc3)c(NC(=O)c3cc(-c4cc[nH]n4)c(C(F)(F)F)cc3F)c2)cc1 [Example 165, N-(5-(4-carbamoylphenyl)-2-phenylpyridin-3-yl)-2-fluoro-5-(1H-pyrazol-3-yl)-4-(trifluoromethyl)benzamide] |
| 2 nM | Cn1ccc(-c2cc(C(=O)Nc3cnc(NC(=O)CO)nc3-c3ccccc3)c(F)cc2C(F)(F)F)n1 [Example 209, 2-Fluoro-N-(2-(2-hydroxyacetamido)-4-phenylpyrimidin-5-yl)-5-(1-methyl-1H-pyrazol-3-yl)-4-(trifluoromethyl)benzamide] |
| 0.68 nM | O=C(Nc1cc(-c2ccc(CO)cn2)cnc1-c1ccccc1)c1cc(-c2ncccn2)c(C(F)(F)F)cc1F [Example 168, 2-fluoro-N-(5-(hydroxymethyl)-6′-phenyl-[2,3′-bipyridin]-5′-yl)-5-(pyrimidin-2-yl)-4-(trifluoromethyl)benzamide] |
| 0.54 nM | CC(=O)N1CCc2nc(-c3ccccc3)c(NC(=O)c3cc(-c4ccn(C)n4)c(C(F)(F)F)cc3Cl)cc2C1 [Example 151, N-(6-acetyl-2-phenyl-5,6,7,8-tetrahydro-1,6-naphthyridin-3-yl)-2-chloro-5-(1-methyl-1H-pyrazol-3-yl)-4-(trifluoromethyl)benzamide] |
| 0.23 nM | Cn1ccc(-c2cc(C(=O)Nc3ccc(CNC(=O)CS(C)(=O)=O)nc3-c3ccccc3)c(F)cc2C(F)(F)F)n1 [Example 59, 2-fluoro-5-(1-methyl-1H-pyrazol-3-yl)-N-(6-((2-(methylsulfonyl)acetamido)methyl)-2-phenylpyridin-3-yl)-4-(trifluoromethyl)benzamide] |
